Where “and” joins values, the source holds several entries; their conditions need not be identical. Equal entries are not always repeated. Toxic doses and inconclusive results are not listed. Cut-off read from the data, not from the text of the source: active = T/C of 150% or more; inactive = T/C below 125%.
Tested on: L1210 leukemia ip in BDF1 mice, survival T/C
Assay: NCI In Vivo Anticancer Drug Screen. Data for tumor model L1210 Leukemia (intraperitoneal) in B6D2F1 (BDF1) mice
Settings: endpoint: mean survival time, higher = longer survival
Experimental: The antitumor activity of compounds was measured in mice bearing transplantable tumors. Survival or tumor size were measured and the results are expressed as the measurement made in the treated group (T) divided by the measurement made in the vehicle treated control group (C). The tumor model used in this assay is L1210 Leukemia (intraperitoneal) in B6D2F1 (BDF1) mice

[1] = dose: 100.0 mg/kg/injection, schedule: Q01DX009 (ip), vehicle: Klucel (hydroxypropylcellulose) (HPC)
[2] = dose: 100.0 mg/kg/injection, schedule: Q04DX002 (ip), vehicle: Klucel (hydroxypropylcellulose) (HPC)
[3] = dose: 200.0 mg/kg/injection, schedule: Q01DX009 (ip), vehicle: Klucel (hydroxypropylcellulose) (HPC)
[4] = dose: 200.0 mg/kg/injection, schedule: Q04DX002 (ip), vehicle: Klucel (hydroxypropylcellulose) (HPC)
[5] = dose: 400.0 mg/kg/injection, schedule: Q01DX009 (ip), vehicle: Klucel (hydroxypropylcellulose) (HPC)
[6] = dose: 400.0 mg/kg/injection, schedule: Q01DX001 (ip), vehicle: carboxymethylcellulose (CMC)
[7] = dose: 100.0 mg/kg/injection, schedule: Q01DX001 (ip), vehicle: other
[8] = dose: 200.0 mg/kg/injection, schedule: Q01DX001 (ip), vehicle: other
[9] = dose: 400.0 mg/kg/injection, schedule: Q01DX001 (ip), vehicle: other
[10] = dose: 100.0 mg/kg/injection, schedule: Q01DX001 (ip), vehicle: carboxymethylcellulose (CMC)
[11] = dose: 200.0 mg/kg/injection, schedule: Q01DX001 (ip), vehicle: carboxymethylcellulose (CMC)
[12] = dose: 12.5 mg/kg/injection, schedule: Q04DX003 (ip), vehicle: saline with Tween-80
[13] = dose: 6.25 mg/kg/injection, schedule: Q01DX009 (ip), vehicle: saline with Tween-80

Measured: T/C

Cc1cc(C)nc(NC(=O)Nc2cc(Cl)ccc2C)c1
inactive: dose: 100.0 mg/kg/injection, schedule: Q01DX001 (ip), vehicle: Klucel (hydroxypropylcellulose) (HPC) 90 % of control | [1] 92 % of control | [2] 100 % of control | dose: 100.0 mg/kg/injection, schedule: Q04DX003 (ip), vehicle: Klucel (hydroxypropylcellulose) (HPC) 93 % of control | dose: 200.0 mg/kg/injection, schedule: Q01DX001 (ip), vehicle: Klucel (hydroxypropylcellulose) (HPC) 100 % of control | [3] 94 % of control and 91 % of control | [4] 96 % of control | dose: 200.0 mg/kg/injection, schedule: Q04DX003 (ip), vehicle: Klucel (hydroxypropylcellulose) (HPC) 92 % of control | dose: 400.0 mg/kg/injection, schedule: Q01DX001 (ip), vehicle: Klucel (hydroxypropylcellulose) (HPC) 95 % of control | [5] 94 % of control and 96 % of control | dose: 400.0 mg/kg/injection, schedule: Q04DX002 (ip), vehicle: Klucel (hydroxypropylcellulose) (HPC) 100 % of control | dose: 400.0 mg/kg/injection, schedule: Q04DX003 (ip), vehicle: Klucel (hydroxypropylcellulose) (HPC) 109 % of control

Clc1cc[c]([Sn]([O][Sn]([c]2ccc(Cl)cc2)([c]2ccc(Cl)cc2)[c]2ccc(Cl)cc2)([c]2ccc(Cl)cc2)[c]2ccc(Cl)cc2)cc1
inactive: dose: 25.0 mg/kg/injection, schedule: Q04DX002 (ip), vehicle: Klucel (hydroxypropylcellulose) (HPC) 107 % of control | dose: 50.0 mg/kg/injection, schedule: Q04DX002 (ip), vehicle: Klucel (hydroxypropylcellulose) (HPC) 91 % of control

CC1N(N=O)CC1(Cl)c1ccccc1 (centres undefined)
inactive: dose: 100.0 mg/kg/injection, schedule: Q04DX002 (ip), vehicle: saline 98 % of control | dose: 200.0 mg/kg/injection, schedule: Q04DX002 (ip), vehicle: saline 98 % of control | dose: 400.0 mg/kg/injection, schedule: Q04DX002 (ip), vehicle: saline 102 % of control

O=C(O)c1ccccc1-c1ccc([N+](=O)[O-])cc1Cl
inactive: dose: 177.0 mg/kg/injection, schedule: Q01DX001 (ip), vehicle: carboxymethylcellulose (CMC) 106 % of control | dose: 266.0 mg/kg/injection, schedule: Q01DX001 (ip), vehicle: carboxymethylcellulose (CMC) 98 % of control | [6] 104 % of control

CC(C)C(C)C(N)C(=O)O (centres undefined)
inactive: [7] 101 % of control | [8] 95 % of control | [9] 106 % of control

Oc1ccc(/C=N/N2CCOCC2)c(O)c1
inactive: [10] 100 % of control and 110 % of control | dose: 100.0 mg/kg/injection, schedule: Q01DX009 (ip), vehicle: carboxymethylcellulose (CMC) 97 % of control | dose: 100.0 mg/kg/injection, schedule: Q04DX002 (ip), vehicle: carboxymethylcellulose (CMC) 92 % of control and 89 % of control | dose: 100.0 mg/kg/injection, schedule: Q04DX003 (ip), vehicle: carboxymethylcellulose (CMC) 95 % of control and 103 % of control | [11] 98 % of control and 110 % of control | dose: 200.0 mg/kg/injection, schedule: Q01DX009 (ip), vehicle: carboxymethylcellulose (CMC) 95 % of control | dose: 200.0 mg/kg/injection, schedule: Q04DX002 (ip), vehicle: carboxymethylcellulose (CMC) 96 % of control and 103 % of control | dose: 200.0 mg/kg/injection, schedule: Q04DX003 (ip), vehicle: carboxymethylcellulose (CMC) 95 % of control and 90 % of control | [6] 98 % of control and 110 % of control | dose: 400.0 mg/kg/injection, schedule: Q01DX009 (ip), vehicle: carboxymethylcellulose (CMC) 88 % of control | dose: 400.0 mg/kg/injection, schedule: Q04DX002 (ip), vehicle: carboxymethylcellulose (CMC) 95 % of control and 86 % of control | dose: 400.0 mg/kg/injection, schedule: Q04DX003 (ip), vehicle: carboxymethylcellulose (CMC) 95 % of control and 87 % of control

O=c1[nH]c(=O)c2nc3ccccc3nc2[nH]1
inactive: [1] 100 % of control | [3] 94 % of control | [5] 93 % of control

COC1OC(CI)C(OS(C)(=O)=O)C(OC(=O)c2ccccc2)C1OC(=O)c1ccccc1 (centres undefined)
inactive: [2] 91 % of control | [4] 97 % of control

O=C(COc1ccc(Cl)cc1C(=O)O)NCc1ccc(Cl)cc1
inactive: dose: 100.0 mg/kg/injection, schedule: Q01DX009 (ip), vehicle: gum acacia 92 % of control | dose: 200.0 mg/kg/injection, schedule: Q01DX009 (ip), vehicle: gum acacia 106 % of control | dose: 400.0 mg/kg/injection, schedule: Q01DX009 (ip), vehicle: gum acacia 92 % of control

CCCCCCCCCCCC(=O)[O][Sn]([CH2]CCC)([CH2]CCC)[O]C(=O)CCCCCCCCCCC
inactive: [12] 108 % of control

CCOc1ccc(N=[N+]([O-])c2ccc(OCC)cc2)cc1
inactive: dose: 100.0 mg/kg/injection, schedule: Q01DX001 (ip), vehicle: saline with Tween-80 103 % of control | dose: 200.0 mg/kg/injection, schedule: Q01DX001 (ip), vehicle: saline with Tween-80 103 % of control | dose: 400.0 mg/kg/injection, schedule: Q01DX001 (ip), vehicle: saline with Tween-80 92 % of control

CCOC(=O)C(=CNc1ccc(Cl)cc1Cl)C(=O)OCC
inactive: [7] 93 % of control | [8] 101 % of control | [9] 101 % of control

CCO/C=C/C(=O)NC(=O)OCC
inactive: dose: 100.0 mg/kg/injection, schedule: Q01DX009 (ip), vehicle: saline with Tween-80 95 % of control | dose: 100.0 mg/kg/injection, schedule: Q04DX003 (ip), vehicle: saline with Tween-80 97 % of control | dose: 200.0 mg/kg/injection, schedule: Q01DX009 (ip), vehicle: saline with Tween-80 91 % of control | dose: 200.0 mg/kg/injection, schedule: Q04DX003 (ip), vehicle: saline with Tween-80 100 % of control | dose: 400.0 mg/kg/injection, schedule: Q01DX009 (ip), vehicle: saline with Tween-80 101 % of control | dose: 400.0 mg/kg/injection, schedule: Q04DX003 (ip), vehicle: saline with Tween-80 94 % of control

CN(C)c1ccc2oc(=O)c3ccccc3c2c1
inactive: dose: 50.0 mg/kg/injection, schedule: Q01DX001 (ip), vehicle: carboxymethylcellulose (CMC) 100 % of control | [10] 92 % of control | [11] 100 % of control | [6] 94 % of control

CCN1C(=O)C(Cl)=C(Cl)C1=O
inactive: dose: 1.56 mg/kg/injection, schedule: Q01DX009 (ip), vehicle: saline with Tween-80 94 % of control | dose: 3.13 mg/kg/injection, schedule: Q01DX009 (ip), vehicle: saline with Tween-80 91 % of control | [13] 92 % of control and 87 % of control

Oc1ccc2ccccc2c1/C=N/N1CCN(/N=C/c2c(O)ccc3ccccc23)CC1
inactive: dose: 100.0 mg/kg/injection, schedule: Q01DX001 (ip), vehicle: saline 104 % of control | dose: 200.0 mg/kg/injection, schedule: Q01DX001 (ip), vehicle: saline 96 % of control | dose: 400.0 mg/kg/injection, schedule: Q01DX001 (ip), vehicle: saline 90 % of control

Clc1ccc(/C=C/c2ccc(Cl)cc2)cc1
inactive: dose: 75.0 mg/kg/injection, schedule: Q04DX003 (ip), vehicle: Klucel (hydroxypropylcellulose) (HPC) 95 % of control | dose: 150.0 mg/kg/injection, schedule: Q04DX003 (ip), vehicle: Klucel (hydroxypropylcellulose) (HPC) 95 % of control | dose: 300.0 mg/kg/injection, schedule: Q04DX003 (ip), vehicle: Klucel (hydroxypropylcellulose) (HPC) 98 % of control

O=CC(Cl)Cl
inactive: dose: 100.0 mg/kg/injection, schedule: Q01DX009 (ip), vehicle: saline 92 % of control | dose: 200.0 mg/kg/injection, schedule: Q01DX009 (ip), vehicle: saline 110 % of control | dose: 400.0 mg/kg/injection, schedule: Q01DX009 (ip), vehicle: saline 108 % of control

CCCCN1CCN(CCCC)C1=O
inactive: [2] 90 % of control | [4] 90 % of control

O=C1OC(=O)C2C3C=CC(CC12)O3 (centres undefined)
inactive: [13] 97 % of control | dose: 6.25 mg/kg/injection, schedule: Q04DX003 (ip), vehicle: saline with Tween-80 96 % of control | dose: 12.5 mg/kg/injection, schedule: Q01DX009 (ip), vehicle: saline with Tween-80 97 % of control | [12] 91 % of control | dose: 25.0 mg/kg/injection, schedule: Q04DX003 (ip), vehicle: saline with Tween-80 94 % of control

Reference: PubChem BioAssay AID248 (DTP/NCI, 2004)
